Measured values as given in patent US5932742A, “Arylsulfonylimidazolone derivatives as an antitumor agent” (priority 1996, dated 1999).
In brackets after ≈: the same amount, converted by molar mass. Counter-ions that a name gives are not always drawn. Like-named read-outs stand apart in the source and are kept apart here.

What was measured:
Type in all cases: cell-based
[1] = test system: KB (ATCC CCL 17): human epidermoid carcinoma; experiment: In vitro antitumor activity, MTT assay, KB; conditions: Homo sapiens, read-out: IC50 (KB)
Protocol: (§1) In vitro antitumor activity against human tumor cell lines
(§2) In vitro antitumor activity of the compounds according to the present invention was determined by MTT assay method against the following human tumor cell lines:
KB (ATCC CCL 17): human epidermoid carcinoma
(§3) In this test, the known antineoplastic compounds, Doxorubicin and Sulofenur, were used as the comparative agents.
(§4) Each of the tumor cells was cultured in RPMI 1640 media containing 10% fetal bovine serum, 100 IU/ml penicillin and 100 μg/ml streptomycin, and then periodically subcultured once or twice per week in trypsin-EDTA solution containing 0.05% trypsin and 0.53mM EDTA.4Na. The human tumor cell line thus obtained (10,000cells/100 μl) was plated on 96-well microplate and then cultured for 24 hrs at 37° C. in a 5% CO2 incubator. Test compound was dissolved in DMSO, sterilized with 0.22 μm PVDF filter, and then serially 5-fold diluted from 40 μg/ml to 0.00256μg/ml. 100 μl of the sample solution thus prepared and RPMI 1640 medium only (control group) were added to 96-well microplate containing the human tumor cell, respectively. The final concentration of the test compound was in the range from 20 μg/ml to 0.00128 μg/ml and the concentration of DMSO was below 0.5%. The cells were cultured for 48 hrs at 37° C. in a 5% CO2 incubator. MTT(3-(4,5-Dimethylthiazole-2-yl)-e,5-diphenyltetrazoliumbromide) was dissolved in physiological saline in a concentration of 2 mg/ml and the resulting solution was filtered through 0.22 μm PTFE filter. 25 μl of MTT solution thus prepared was added to each well of 96-well microplate and incubated for additional 4 hrs at 37° C. in a 5% CO2 incubator. Then, the content of microplate was centrifuged at 1000 rpm for 10 min, and supernatant was removed by flicking. The formazan formed from MTT by mitochondrial succinate dehydrogenase was dissolved in 100 μl of DMSO. The absorbance of each well was measured at 540nm by micro ELISA reader and the cytotoxicity was calculated by dividing the absorbance of test group by the absorbance of control group. After the calculated cytotoxicity (%) was plotted, the concentration of 50% tumor growth inhibition concentration (IC50) was estimated by Linear-Regression method.

[2] = test system: SK-OV-3 (ATCC HTB 77): human ovarian adenocarcinoma; experiment: In vitro antitumor activity, MTT assay, SK-OV-3; conditions: Homo sapiens
Protocol: as §1, §2
SK-OV-3 (ATCC HTB 77): human ovarian adenocarcinoma
as §3, §4

[3] = test system: Colo205 (ATCC CCL 222): human colon adenocarcinoma; experiment: In vitro antitumor activity, MTT assay, Colo205; conditions: Homo sapiens
Protocol: as §1, §2
Colo205 (ATCC CCL 222): human colon adenocarcinoma
as §3, §4

[4] = test system: A549 (ATCC CCL 185): human lung carcinoma; experiment: In vitro antitumor activity, MTT assay, A549; conditions: Homo sapiens, A549, 48 h
Protocol: as §1, §2
A549 (ATCC CCL 185): human lung carcinoma
as §3, §4

[5] = test system: K562 (ATCC CCL 243): human chronic myelogenous leukemia; experiment: In vitro antitumor activity, MTT assay, K562; conditions: Homo sapiens, K562, 48 h
Protocol: as §1, §2
K562 (ATCC CCL 243): human chronic myelogenous leukemia
as §3, §4

[6] = COLO 205, Table 1, 48 hrs, read-out: IC50 (Colo205)
[7] = COLO 205, Table 2, 48 hrs, read-out: IC50 (Colo205)

For Nc1ccc(C(=O)N2CCc3cc(S(=O)(=O)n4cc(-c5ccccc5)[nH]c4=O)ccc32)cc1 [Example 10, 4-phenyl-1-[N-(4-aminobenzoyl)indoline-5-sulfonyl]-2-imidazolone.HCl], the IC50 ([1]; Table 1, MTT, 48 hrs) was 0.0001 µg/mL, the IC50 ([2]; SK-OV-3, Table 1, 48 hrs) was 0.529 µg/mL and the IC50 [3, 6] was 0.334 µg/mL. It also gave an IC50 ([4]; Table 1) of 0.23 µg/mL.
O=C(c1ccccc1)N1CCc2cc(S(=O)(=O)n3cc(-c4ccccc4)[nH]c3=O)ccc21 [Example 13, 4-phenyl-1-(N-benzoylindoline-5-sulfonyl)-2-imidazolone] gave an IC50 ([1]; Table 1, MTT, 48 hrs) of 0.028 µg/mL (≈ 0.0629 µM), an IC50 ([2]; SK-OV-3, Table 1, 48 hrs) of 1.22 µg/mL (≈ 2.73 µM) and an IC50 [3, 6] of 0.644 µg/mL (≈ 1.45 µM). It also gave an IC50 ([4]; Table 1) of 0.199 µg/mL (≈ 0.447 µM).
CCCNC(=O)N1c2ccc(S(=O)(=O)n3cc(-c4ccccc4)[nH]c3=O)cc2CC1C (centres unmarked) [Example 5, 4-phenyl-1-(N-propylcarbamoyl-2-methylindoline-5-sulfonyl)-2-imidazolone] was tested, and the IC50 ([1]; Table 1, MTT, 48 hrs) was 0.105 µg/mL (≈ 0.238 µM), the IC50 ([2]; SK-OV-3, Table 1, 48 hrs) was 0.146 µg/mL (≈ 0.331 µM) and the IC50 [3, 6] was 0.519 µg/mL (≈ 1.18 µM). For the same compound, the IC50 ([4]; Table 1) was 0.09 µg/mL (≈ 0.204 µM).
In the case of CC1Cc2cc(S(=O)(=O)n3cc(-c4ccccc4)[nH]c3=O)ccc2N1C(=O)CNC(C)(C)C (centres unmarked) [Example 27, 4-phenyl-1-(N-t-butylaminoacetyl-2-methylindoline-5-sulfonyl)-2-imidazolone.HCl], the IC50 ([1]; Table 2, MTT, 48 hrs) was 0.317 µg/mL, the IC50 ([2]; SK-OV-3, Table 2, 48 hrs) was 2.44 µg/mL and the IC50 [3, 7] was 5.68 µg/mL. The IC50 ([4]; Table 2) was 1.45 µg/mL.
CCOC(=O)N1CCc2cc(S(=O)(=O)n3cc(-c4ccccc4)[nH]c3=O)ccc21 [Example 1, 4-phenyl-1-(N-ethoxycarbonylindoline-5-sulfonyl)-2-imidazolone] was tested, and the IC50 ([1]; Table 1, MTT, 48 hrs) was 0.017 µg/mL (≈ 0.0411 µM), the IC50 ([2]; SK-OV-3, Table 1, 48 hrs) was 10.1 µg/mL (≈ 24.3 µM) and the IC50 [3, 6] was 0.906 µg/mL (≈ 2.19 µM). For the same compound, the IC50 ([4]; Table 1) was 0.374 µg/mL (≈ 0.905 µM).
CC(C)CNCC(=O)N1CCc2cc(S(=O)(=O)n3cc(-c4ccccc4)[nH]c3=O)ccc21 [Example 26, 4-phenyl-1-(N-isobutylaminoacetylindoline-5-sulfonyl)-2-imidazolone.HCl] gave an IC50 ([1]; Table 2, MTT, 48 hrs) of 1.99 µg/mL, an IC50 ([2]; SK-OV-3, Table 2, 48 hrs) of 10.1 µg/mL and an IC50 [3, 7] of 9.09 µg/mL. The IC50 ([4]; Table 2) was 5.47 µg/mL.
With CNCC(=O)N1c2ccc(S(=O)(=O)n3cc(-c4ccccc4)[nH]c3=O)cc2CC1C (centres unmarked) [Example 22, 4-phenyl-1-(N-methylaminoacetyl-2-methylindoline-5-sulfonyl)-2-imidazolone.HCl] the IC50 ([1]; Table 2, MTT, 48 hrs) was 0.688 µg/mL, the IC50 ([2]; SK-OV-3, Table 2, 48 hrs) was 3.08 µg/mL and the IC50 [3, 7] was 3.8 µg/mL. For the same compound, the IC50 ([4]; Table 2) was 3.24 µg/mL.
For COc1cccc2c1C(=O)c1c(O)c3c(c(O)c1C2=O)C[C@@](O)(C(=O)CO)C[C@@H]3O[C@H]1C[C@H](N)[C@H](O)[C@H](C)O1 [Doxorubicin, reference compound], the IC50 ([5]; read-out: IC50 (K562), Table 3) was 0.276 µg/mL (≈ 0.508 µM), the IC50 ([5]; read-out: IC50 (K562), Table 4) was 0.962 µg/mL (≈ 1.77 µM) and the IC50 ([5]; read-out: IC50 (K562), Table 5) was 0.78 µg/mL (≈ 1.44 µM). For the same compound, the IC50 ([1]; 48 h) was 0.914 µg/mL (≈ 1.68 µM), the IC50 ([2]; SK-OV-3, 48 h, Table 1) was 2.25 µg/mL (≈ 4.15 µM) and the IC50 ([2]; SK-OV-3, 48 h, Table 3) was 1.31 µg/mL (≈ 2.42 µM). The IC50 ([2]; SK-OV-3, 48 h, Table 4) was 2.25 µg/mL (≈ 4.15 µM), the IC50 ([2]; SK-OV-3, 48 h, Table 5) was 1.6 µg/mL (≈ 2.94 µM) and the IC50 ([3]; COLO 205, 48 h, read-out: IC50 (Col205), Table 3) was 6.3 µg/mL (≈ 11.6 µM). The IC50 ([3]; COLO 205, 48 h, read-out: IC50 (Colo205), Table 1) was 0.973 µg/mL (≈ 1.79 µM), the IC50 ([3]; COLO 205, 48 h, read-out: IC50 (Colo205), Table 5) was 0.961 µg/mL (≈ 1.77 µM) and the IC50 ([4]; Table 1) was 0.742 µg/mL (≈ 1.37 µM). It also gave an IC50 ([4]; Table 3) of 0.67 µg/mL (≈ 1.23 µM), an IC50 ([4]; Table 4) of 1.08 µg/mL (≈ 1.99 µM) and an IC50 ([4]; Table 5) of 1.68 µg/mL (≈ 3.09 µM).
With CCOc1ccc(C(=O)N2CCc3cc(S(=O)(=O)n4cc(-c5ccccc5)[nH]c4=O)ccc32)cc1 [Example 14, 4-phenyl-1-[N-(4-ethoxybenzoyl)indoline-5-sulfonyl]-2-imidazolone] the IC50 ([1]; Table 1, MTT, 48 hrs) was 0.107 µg/mL (≈ 0.219 µM), the IC50 ([2]; SK-OV-3, Table 1, 48 hrs) was 0.926 µg/mL (≈ 1.89 µM) and the IC50 [3, 6] was 1.28 µg/mL (≈ 2.62 µM). It also gave an IC50 ([4]; Table 1) of 0.445 µg/mL (≈ 0.909 µM).
